Measurements published in ChEMBL document CHEMBL6096731, “Structure-Guided Optimization and Preclinical Evaluation of 6-O-Benzylguanine-Based Pin1 Inhibitor for Hepatocellular Carcinoma Treatment” (J Med Chem, 2025).

Experiments:
[1] = Antiproliferative activity against human HCC cells assessed as cell viability incubated for 72 hrs by alamar blue dye based assay; format: toxicity; settings: HCC cells
[2] = biological target: Peptidyl-prolyl cis-trans isomerase NIMA-interacting 1 (Homo sapiens, UniProt Q13526); assay: Inhibition of full length pin1 (unknown origin) expressed in Escherichia coli
Sequence of Peptidyl-prolyl cis-trans isomerase NIMA-interacting 1 (Q13526 whole entry): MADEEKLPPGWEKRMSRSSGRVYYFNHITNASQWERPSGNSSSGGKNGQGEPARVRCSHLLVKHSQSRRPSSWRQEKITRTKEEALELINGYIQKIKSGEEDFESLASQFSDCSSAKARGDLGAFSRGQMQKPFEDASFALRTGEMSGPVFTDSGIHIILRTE

Compound	IC50 [2] [µM]	IC50 at 72 h [1] [µM]
Nc1nc(OCc2cccc(Cl)c2Cl)c2nc[nH]c2n1	> 50	13.3
Nc1nc(OCc2ccccc2)c2[nH]cnc2n1 [6-O-BENZYLGUANINE]	0.0914	8.5
CCCCOc1nc(N)nc2[nH]cnc12	18.3	> 50
CCOC(=O)Cn1cnc2c(OCc3cccc(Cl)c3Cl)nc(N)nc21	> 50	> 50
CCOC(=O)Cn1cnc2c(OCc3cccc(Oc4ccccc4)c3)nc(N)nc21	> 50	> 50
Nc1nc(OCc2cc(OCc3ccccc3)cc(OCc3ccccc3)c2)c2nc[nH]c2n1	11.1	38.5
Nc1nc(OCc2cccc(F)c2)c2nc[nH]c2n1	34.5	3.3
COc1cccc(COc2nc(N)nc3[nH]cnc23)c1	13.5	6.6
CCOC(=O)Cn1cnc2c(OCc3cccc(OC)c3)nc(N)nc21	21.7	> 50
CCOC(=O)CCCn1cnc2c(OCc3cccc(OC)c3)nc(N)nc21	19.1	> 50
CCOC(=O)Cn1cnc2c(OCc3cccc(F)c3)nc(N)nc21	8.03	> 50
Nc1nc(OCc2cccc(Oc3ccccc3)c2)c2nc[nH]c2n1	> 50	34.3
COc1cc(COc2nc(N)nc3[nH]cnc23)ccc1OCc1ccccc1	11.1	11.2
COc1cccc(Oc2nc(N)nc3[nH]cnc23)c1	28.2	> 50
Nc1nc(OCc2ccccc2-c2ccccc2)c2nc[nH]c2n1	8.03	28.9

Further lines, with some results ahead:

IC50 [2] [µM]	Compound	IC50 at 72 h [1] [µM]
3.63	Nc1nc(OCCCc2ccccc2)c2nc[nH]c2n1	35.6
0.256	Nc1nc(OCc2ccc(Br)cc2)c2[nH]cnc2n1	4.8
1.46	COc1cccc(COc2nc(N)nc3c2ncn3Cc2ccccc2)c1	> 50
0.508	COCOc1cccc(COc2nc(N)nc3[nH]cnc23)c1	7.6
0.634	Nc1nc(OCc2cccc(C(F)(F)F)c2)c2nc[nH]c2n1	16
0.125	CC(=O)NCc1ccc(COc2nc(N)nc3[nH]cnc23)cc1	5.3
0.293	Cc1ccc(COc2nc(N)nc3nc[nH]c23)cc1	6.1
7.15	Nc1nc(OCc2cccs2)c2nc[nH]c2n1	42.2
5.39	COc1ccc(COc2nc(N)nc3[nH]cnc23)cc1	4.2
0.64	Nc1nc(OCc2cccc(Br)c2)c2nc[nH]c2n1	11.3
0.208	Cc1cccc(COc2nc(N)nc3nc[nH]c23)c1	5.5
5.69	Nc1nc(OCC2CCCCC2)c2nc[nH]c2n1	29.6
5.79	Nc1nc(OCc2cccc3ccccc23)c2nc[nH]c2n1	33
7.85	COc1cc(COc2nc(N)nc3[nH]cnc23)cc(OC)c1OC	> 50
0.951	Cc1ccc(COc2nc(N)nc3[nH]cnc23)cc1C	5.3
0.148	Nc1nc(OCc2ccccc2Cl)c2nc[nH]c2n1	5.6
0.179	Nc1nc(OCc2cccc(Cl)c2)c2nc[nH]c2n1	4
2.06	Nc1nc(SCc2ccccc2)c2[nH]cnc2n1	10.4
0.829	CSc1ccc(COc2nc(N)nc3[nH]cnc23)cc1	6.9
0.36	Nc1nc(OCc2cc(F)ccc2F)c2nc[nH]c2n1	16.6
1.65	Nc1nc(OCc2cc(F)ccc2Br)c2nc[nH]c2n1	22.2
0.829	COC(=O)Cn1cnc2c(OCc3cccc(Cl)c3Cl)nc(N)nc21	> 50
0.519	COCOc1ccc(COc2nc(N)nc3[nH]cnc23)cc1OC	> 50
